Laboratory results: patent publication US10278394B2, “Compounds derived from herbicidal carboxylic acids and tetraalkylammonium or (arylalkyl)trialkylammonium hydroxides” (Dow AgroSciences LLC, priority 2007, dated 2019)

Test system: grapes (Vitis labrusca L.)
Assay: Volatility evaluation: injury to grapes from vapor exposure to treated wheat
Format: in vivo
Settings: wheat sprayed at 11200 g ae/ha; 24 hour vapor exposure at 40° C.; evaluated 7 days after exposure
From the text: Method for evaluating the volatility of herbicide standards and the compounds derived from combining a carboxylic acid herbicide with either a tetraalkylammonium or an (arylalkyl)trialkylammonium hydroxide.
Four pots of wheat (Triticum aestivum L.) grown in 4 inch square pots were sprayed at 11200 g ae/ha with each of the different forms of 2,4-D. Treatments were applied with a tracksprayer manufactured by Allen Machine Works. The sprayer utilized an 8002E spray nozzle, spray pressure of 262 kPa pressure and speed of 1.5 mph (2.4 km/h) to deliver 187 L/Ha. The nozzle height was 46 cm above the plant canopy. The growth stage of the wheat was 1 to 2 leaf. The wheat plants were allowed to thoroughly dry to ensure that none of the spray solution was present when they were moved into a clean pot flat. A known sensitive species, grapes (Vitis labrusca L.) were placed at the opposite end of the flat. All of the pots were covered with a humidome with small ½ inch (1.27 cm) diameter holes cut into the end where the wheat was placed and a small box fan powered with a battery in the other end to pull air across the treated wheat plants and over the top of grapes. […] A 24 hour exposure period was used after which the sensitive plants were then removed and placed in the greenhouse and evaluated for injury from vapor exposure to the treatments.

SMILES: CNC.COc1c(Cl)ccc(Cl)c1C(=O)O [Dicamba DMA]
- % Injury to grapes from vapor exposure: 70%
